From patent US20100144725A1, “PESTICIDAL COMBINATIONS” (SYNGENTA CROP PROTECTION, INC., priority 2007, published 2010)

Legend:
[1] = test system: Pyrenophora graminea; test: Fungal growth assay, Pyrenophora graminea (leaf stripe of barley), microtiter plate, photometric; type: cell-based; conditions: 72 hrs
Experimental: The action to be expected E for a given active ingredient combination obeys the so-called COLBY formula and can be calculated as follows (COLBY, S. R. “Calculating synergistic and antagonistic responses of herbicide combination”. Weeds, Vol. 15, pages 20-22; 1967): If the action actually observed (O) is greater than the expected action (E), then the action of the combination is super-additive, i.e. there is a synergistic effect. Inhibiting of fungal growth of the following fungi are carried out by fungal growth assays (detailed below). Pyrenophora […] stripe of barley): Conidia of the fungus from cryogenic storage are directly mixed into nutrient broth (PDB potato dextrose broth). After placing a (DMSO) solution of the test compounds into a microtiter plate (96-well format) the nutrient broth containing the fungal spores is added. The test plates are incubated at 24 C and the inhibition of growth is measured photometrically after 72 hrs. The fungicide interactions in the combinations are calculated according to COLBY method, where A is thiabendazole and B is a mixture of tebuconazole and azoxystrobin in a mass ratio of 2:1. The results for A & B solo are shown in Table below and those for the combinations in a range of ratios in Table 1.

[2] = test system: Rhizoctonia solani; test: Fungal growth assay, Rhizoctonia solani (foot rot, damping-off), microtiter plate, photometric; type: cell-based; conditions: 72 hrs
Experimental: The action to be expected E for a given active ingredient combination obeys the so-called COLBY formula and can be calculated as follows (COLBY, S. R. “Calculating synergistic and antagonistic responses of herbicide combination”. Weeds, Vol. 15, pages 20-22; 1967): If the action actually observed (O) is greater than the expected action (E), then the action of the combination is super-additive, i.e. there is a synergistic effect. Inhibiting of fungal growth of the following fungi are carried out by fungal growth assays (detailed below). Rhizoctonia solani (foot rot, damping-off): Mycelial fragments of a newly grown culture of the fungus are directly mixed into nutrient broth (PDB potato dextrose broth). After placing a (DMSO) solution of the test compounds into a microtiter plate (96-well format) the nutrient broth containing the fungal spores is added. The test plates were incubated at 24 C and the inhibition of growth is measured photometrically after 72 hrs. The fungicide interactions in the combinations are calculated according to COLBY method, where C is ipconazole and D is a mixture of tebuconazole and azoxystrobin in a mass ratio of 2:1. The results for C & D solo are shown in Table below and those for the combinations in a range of ratios in Table 2.

Row | SMILES | Observed control in % ([1]; A solo 0.004 ppm) [%] | Observed control in % ([1]; A solo 0.008 ppm) [%] | Observed control in % ([1]; A solo 0.016 ppm) [%] | Observed control in % ([1]; A solo 0.031 ppm) [%] | Observed control in % ([1]; A solo 0.063 ppm) [%] | Observed control in % ([1]; A solo 0.125 ppm) [%] | Observed control in % ([1]; A solo 0.25 ppm) [%] | Observed control in % ([1]; A solo 0.5 ppm) [%] | Observed control in % ([1]; A solo 1.0 ppm) [%] | Observed control in % ([1]; A solo 2.0 ppm) [%] | Observed control in % ([2]; C solo 0.004 ppm) [%] | Observed control in % ([2]; C solo 0.008 ppm) [%] | Observed control in % ([2]; C solo 0.016 ppm) [%] | Observed control in % ([2]; C solo 0.031 ppm) [%] | Observed control in % ([2]; C solo 0.063 ppm) [%] | Observed control in % ([2]; C solo 0.125 ppm) [%] | Observed control in % ([2]; C solo 0.25 ppm) [%] | Observed control in % ([2]; C solo 0.5 ppm) [%] | Observed control in % ([2]; C solo 1.0 ppm) [%] | Observed control in % ([2]; C solo 2.0 ppm) [%]
1 | c1ccc2[nH]c(-c3cscn3)nc2c1 [A, thiabendazole] | 0 | 0 | 0 | 0 | 0 | 1 | 10 | 25 | 29 | 22 |  |  |  |  |  |  |  |  |  | 
2 | CC(C)C1CCC(Cc2ccc(Cl)cc2)C1(O)Cn1cncn1 (centres unmarked) [C, ipconazole] |  |  |  |  |  |  |  |  |  |  | 9 | 3 | 0 | 7 | 0 | 0 | 2 | 5 | 0 | 9
